Assay results taken from PubChem BioAssay AID1963978 (Molecular Pharmacology Branch, DTP, NCI, 2024).

Test system: 616215-338-R-J1-PDC spheroids with HUVEC/MSC, viability
Assay: Anticancer human tumor 616215-338-R-J1-PDC patient-derived colon adenocarcinoma cell line growth inhibition [PI3K]
Conditions: for IC50: curve of first compound; for viability, T/C: stronger effect = lower value
How it was run: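 Complex 3D spheroids (cancer cells + endothelial HUVEC + mesenchymal stem cells); drug pairs of targeted agent x inavolisib/alpelisib/duvelisib/copanlisib; half-log series from ~Cmax, max 10 microM if Cmax unknown; endpoint viability.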

[1] = second compound 0.00316 µM, first compound 0.0316 µM
[2] = second compound 0.00316 µM, first compound 0.1 µM
[3] = second compound 0.00316 µM, first compound 0.316 µM
[4] = second compound 0.00316 µM, first compound 1 µM
[5] = second compound 0.00316 µM, first compound 3.16 µM
[6] = second compound 0.00316 µM, first compound 10 µM
[7] = second compound 0.01 µM, first compound 0.0316 µM
[8] = second compound 0.01 µM, first compound 0.1 µM
[9] = second compound 0.01 µM, first compound 0.316 µM
[10] = second compound 0.01 µM, first compound 1 µM
[11] = second compound 0.01 µM, first compound 3.16 µM
[12] = second compound 0.01 µM, first compound 10 µM
[13] = second compound 0.0316 µM, first compound 0.0316 µM
[14] = second compound 0.0316 µM, first compound 0.1 µM
[15] = second compound 0.0316 µM, first compound 0.316 µM
[16] = second compound 0.0316 µM, first compound 1 µM
[17] = second compound 0.0316 µM, first compound 3.16 µM
[18] = second compound 0.0316 µM, first compound 10 µM
[19] = second compound 0.1 µM, first compound 0.0316 µM
[20] = second compound 0.1 µM, first compound 0.1 µM
[21] = second compound 0.1 µM, first compound 0.316 µM
[22] = second compound 0.1 µM, first compound 1 µM
[23] = second compound 0.1 µM, first compound 3.16 µM
[24] = second compound 0.1 µM, first compound 10 µM
[25] = second compound 0.316 µM, first compound 0.0316 µM
[26] = second compound 0.316 µM, first compound 0.1 µM
[27] = second compound 0.316 µM, first compound 0.316 µM
[28] = second compound 0.316 µM, first compound 1 µM
[29] = second compound 0.316 µM, first compound 3.16 µM
[30] = second compound 0.316 µM, first compound 10 µM
[31] = second compound 1 µM, first compound 0.0316 µM
[32] = second compound 1 µM, first compound 0.1 µM
[33] = second compound 1 µM, first compound 0.316 µM
[34] = second compound 1 µM, first compound 1 µM
[35] = second compound 1 µM, first compound 3.16 µM
[36] = second compound 1 µM, first compound 10 µM
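Note: spheroids exposed to agents for seven days before the viability read.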

SMILES: CC(C)NCC(C(=O)N1CCN(c2ncnc3c2C(C)CC3O)CC1)c1ccc(Cl)cc1 (stereo unspecified) + COc1c(OCCCN2CCOCC2)ccc2c3n(c(=NC(=O)c4cnc(N)nc4)nc12)CCN3
- IC50 (second compound 0.00316 µM): 4.67 µM
- IC50 (second compound 0.01 µM): 4 µM
- IC50 (second compound 0.0316 µM): 2.56 µM
- IC50 (second compound 0.1 µM): 1.64 µM
- IC50 (second compound 0.316 µM): < 0.0316 µM
- IC50 (second compound 1 µM): < 0.0316 µM
- viability, T/C [1]: 87.4%
- viability, T/C [2]: 92.8%
- viability, T/C [3]: 92.9%
- viability, T/C [4]: 97%
- viability, T/C [5]: 64.3%
- viability, T/C [6]: 22.1%
- viability, T/C [7]: 93.1%
- viability, T/C [8]: 99.6%
- viability, T/C [9]: 100%
- viability, T/C [10]: 103%
- viability, T/C [11]: 57.2%
- viability, T/C [12]: 21.4%
- viability, T/C [13]: 96.8%
- viability, T/C [14]: 102%
- viability, T/C [15]: 93.6%
- viability, T/C [16]: 94.4%
- viability, T/C [17]: 40.1%
- viability, T/C [18]: 23.7%
- viability, T/C [19]: 98.8%
- viability, T/C [20]: 84.4%
- viability, T/C [21]: 80.3%
- viability, T/C [22]: 55.7%
- viability, T/C [23]: 39.6%
- viability, T/C [24]: 18.5%
- viability, T/C [25]: 38.3%
- viability, T/C [26]: 37.1%
- viability, T/C [27]: 33.3%
- viability, T/C [28]: 30.3%
- viability, T/C [29]: 28.2%
- viability, T/C [30]: 17%
- viability, T/C [31]: 24.8%
- viability, T/C [32]: 21.8%
- viability, T/C [33]: 22.1%
- viability, T/C [34]: 20.9%
- viability, T/C [35]: 20.7%
- viability, T/C [36]: 14.1%

SMILES: CCN1CCN(Cc2ccc(Nc3ncc(F)c(-c4cc(F)c5nc(C)n(C(C)C)c5c4)n3)nc2)CC1 + COc1c(OCCCN2CCOCC2)ccc2c3n(c(=NC(=O)c4cnc(N)nc4)nc12)CCN3
- IC50 (second compound 0.00316 µM): > 1 µM
- IC50 (second compound 0.01 µM): > 1 µM
- IC50 (second compound 0.0316 µM): > 1 µM
- IC50 (second compound 0.1 µM): 0.185 µM
- IC50 (second compound 0.316 µM): < 0.00316 µM
- IC50 (second compound 1 µM): < 0.00316 µM
- viability, T/C (second compound 0.00316 µM, first compound 0.00316 µM): 80.7%
- viability, T/C (second compound 0.00316 µM, first compound 0.01 µM): 104%
- viability, T/C [1]: 100%
- viability, T/C [2]: 97.3%
- viability, T/C [3]: 128%
- viability, T/C [4]: 90.8%
- viability, T/C (second compound 0.01 µM, first compound 0.00316 µM): 89.5%
- viability, T/C (second compound 0.01 µM, first compound 0.01 µM): 105%
- viability, T/C [7]: 104%
- viability, T/C [8]: 118%
- viability, T/C [9]: 138%
- viability, T/C [10]: 87.6%
- viability, T/C (second compound 0.0316 µM, first compound 0.00316 µM): 108%
- viability, T/C (second compound 0.0316 µM, first compound 0.01 µM): 109%
- viability, T/C [13]: 103%
- viability, T/C [14]: 106%
- viability, T/C [15]: 112%
- viability, T/C [16]: 55.9%
- viability, T/C (second compound 0.1 µM, first compound 0.00316 µM): 87.8%
- viability, T/C (second compound 0.1 µM, first compound 0.01 µM): 80.3%
- viability, T/C [19]: 64.9%
- viability, T/C [20]: 54.9%
- viability, T/C [21]: 47.1%
- viability, T/C [22]: 34.7%
- viability, T/C (second compound 0.316 µM, first compound 0.00316 µM): 36.1%
- viability, T/C (second compound 0.316 µM, first compound 0.01 µM): 33.8%
- viability, T/C [25]: 33%
- viability, T/C [26]: 40.7%
- viability, T/C [27]: 33.4%
- viability, T/C [28]: 32%
- viability, T/C (second compound 1 µM, first compound 0.00316 µM): 22.3%
- viability, T/C (second compound 1 µM, first compound 0.01 µM): 23.4%
- viability, T/C [31]: 20.6%
- viability, T/C [32]: 24.6%
- viability, T/C [33]: 27.2%
- viability, T/C [34]: 31.1%

SMILES: Cn1ncc(Cl)c1-c1cc(C(=O)NC(CN)Cc2cccc(F)c2)sc1Cl (stereo unspecified) + COc1c(OCCCN2CCOCC2)ccc2c3n(c(=NC(=O)c4cnc(N)nc4)nc12)CCN3
- IC50 (second compound 0.00316 µM): 2.98 µM
- IC50 (second compound 0.01 µM): 2.96 µM
- IC50 (second compound 0.0316 µM): 2.49 µM
- IC50 (second compound 0.1 µM): 1.89 µM
- IC50 (second compound 0.316 µM): < 0.0316 µM
- IC50 (second compound 1 µM): < 0.0316 µM
- viability, T/C [1]: 95.1%
- viability, T/C [2]: 90.2%
- viability, T/C [3]: 91.7%
- viability, T/C [4]: 99.6%
- viability, T/C [5]: 47.6%
- viability, T/C [6]: 16.6%
- viability, T/C [7]: 108%
- viability, T/C [8]: 96.3%
- viability, T/C [9]: 94.6%
- viability, T/C [10]: 92.9%
- viability, T/C [11]: 47.3%
- viability, T/C [12]: 17.6%
- viability, T/C [13]: 102%
- viability, T/C [14]: 104%
- viability, T/C [15]: 96.7%
- viability, T/C [16]: 75.2%
- viability, T/C [17]: 43.9%
- viability, T/C [18]: 15.1%
- viability, T/C [19]: 90.8%
- viability, T/C [20]: 86.8%
- viability, T/C [21]: 79.7%
- viability, T/C [22]: 72.8%
- viability, T/C [23]: 32.2%
- viability, T/C [24]: 12.9%
- viability, T/C [25]: 45%
- viability, T/C [26]: 35%
- viability, T/C [27]: 35.5%
- viability, T/C [28]: 32%
- viability, T/C [29]: 27.2%
- viability, T/C [30]: 15.3%
- viability, T/C [31]: 21.4%
- viability, T/C [32]: 28.2%
- viability, T/C [33]: 16.9%
- viability, T/C [34]: 20.9%
- viability, T/C [35]: 16.6%
- viability, T/C [36]: 7.24%
